Common to all, as to format: biochemical
One assay concerns the target JAK1 (Homo sapiens, UniProt P23458). Briefly: JAK 1 enzymatic inhibitory activity IC50 assay (Caliper conversion rate). The note with it: Km ATP, 28° C., 1 hour. On the procedure: (§1) Biological effect: intracytoplasmic JAK 1,2,3 enzymatic inhibitory activity IC50 assay
(§2) JAK1 buffer solution: 25 mM HEPES, pH 7.5, 0.01% Brij-35, 0.01 M Triton. JAK2,3 buffer solution: 50 mM HEPES, pH 7.5, 0.0015% Brij-35.
(§3) 2. Compound was formulated in 100% DMSO in a concentration gradient, deposited to a 384-well plate with a final concentration of 2% of DMSO.
(§4) 3. JAK2,3 enzymes were diluted to having an optimum concentration with the following buffer: 50 mM HEPES, pH 7.5, 0.0015% Brij-35, 2 mM DTT. JAK1 enzyme was diluted to having an optimum concentration with the following buffer: 25 mM HEPES, pH 7.5, 0.01% Brij-35, 2 mM DTT, 0.01M Triton. Then they were transferred to a 384-well plate and incubated with the compound for a certain time.
(§5) 4. JAK2,3 substrate was diluted to having an optimum concentration with the following buffer: 50 mM HEPES, pH 7.5, 0.0015% Brij-35, 10 mM MgCl2, Km adenosine triphosphate. JAK1 substrate was diluted to having an optimum concentration with the following buffer: 25 mM HEPES, pH 7.5, 0.01% Brij-35, 10 mM MgCl2, 0.01 M Triton. Km adenosine triphosphate was added into 384-well plates to initiate reactions, and the reaction were carried out at 28° C. for 1 hour.
(§6) 5. Read the conversion rate by Caliper Reader, and the inhibition rate are calculated according to the average of two tests.

In the next assay the target is JAK2 (Homo sapiens, UniProt O60674). Briefly: JAK 2 enzymatic inhibitory activity IC50 assay (Caliper conversion rate). The conditions noted are these: Km ATP, 28° C., 1 hour. As to the method:
as §1, §2, §3, §4, §5, §6

Another assay deals with T1, JAK3 (Homo sapiens, UniProt P52333).
T1 sequence (P52333 1-1124): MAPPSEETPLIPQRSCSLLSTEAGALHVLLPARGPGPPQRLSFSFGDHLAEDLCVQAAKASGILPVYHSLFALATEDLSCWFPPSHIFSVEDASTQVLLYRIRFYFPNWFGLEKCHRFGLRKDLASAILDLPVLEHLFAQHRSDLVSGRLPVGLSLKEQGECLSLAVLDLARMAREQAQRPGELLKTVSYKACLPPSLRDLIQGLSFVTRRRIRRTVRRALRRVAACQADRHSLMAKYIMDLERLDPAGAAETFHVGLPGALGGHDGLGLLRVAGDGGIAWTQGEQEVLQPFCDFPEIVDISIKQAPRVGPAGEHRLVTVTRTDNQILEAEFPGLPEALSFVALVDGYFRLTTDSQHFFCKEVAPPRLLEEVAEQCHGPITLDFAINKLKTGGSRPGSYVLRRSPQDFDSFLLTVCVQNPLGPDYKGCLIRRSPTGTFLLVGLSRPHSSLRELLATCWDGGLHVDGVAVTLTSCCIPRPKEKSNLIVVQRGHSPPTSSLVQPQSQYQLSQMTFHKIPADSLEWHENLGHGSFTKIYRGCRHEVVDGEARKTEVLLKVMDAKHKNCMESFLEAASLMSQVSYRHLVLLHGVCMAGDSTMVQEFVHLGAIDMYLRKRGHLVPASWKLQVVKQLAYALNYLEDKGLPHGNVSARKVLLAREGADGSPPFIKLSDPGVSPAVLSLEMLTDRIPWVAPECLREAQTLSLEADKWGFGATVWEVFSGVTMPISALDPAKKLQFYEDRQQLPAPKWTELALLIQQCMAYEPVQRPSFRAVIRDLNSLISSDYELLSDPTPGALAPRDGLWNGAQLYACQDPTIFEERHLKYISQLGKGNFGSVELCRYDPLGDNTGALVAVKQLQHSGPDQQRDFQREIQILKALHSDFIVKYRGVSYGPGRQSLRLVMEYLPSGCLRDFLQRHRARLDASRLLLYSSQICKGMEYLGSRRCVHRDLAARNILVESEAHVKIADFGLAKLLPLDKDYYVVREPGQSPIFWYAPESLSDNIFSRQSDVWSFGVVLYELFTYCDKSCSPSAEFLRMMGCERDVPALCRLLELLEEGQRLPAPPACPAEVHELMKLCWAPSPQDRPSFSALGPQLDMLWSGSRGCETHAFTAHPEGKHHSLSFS
Briefly: JAK 3 enzymatic inhibitory activity IC50 assay (Caliper conversion rate). The note with it: Km ATP, 28° C., 1 hour; read-out: JAK 3 enzymatic inhibitory activity IC50. As to the method:
as §1, §2, §3
3. JAK2,3 enzymes were diluted to having an optimum concentration with the following buffer: 50 mM HEPES, pH 7.5, 0.0015% Brij-35, 2 mM DTT. JAK1 enzyme was diluted to having an optimum concentration with the following buffer: 25 mM HEPES, pH 7.5, 0.01% Brij-35, 2 mM DTT, 0.01M Triton. Then they were transferred to a 384-well plate and incubated with the compound for a certain time. […]
as §6

The source of these data is patent US9745320B2, “Five-and-six-membered heterocyclic compound, and preparation method, pharmaceutical composition and use thereof” (SHANGHAI CHEMEXPLORER CO., LTD., priority 2013, dated 2017).

JAK2, sequence (O60674 whole entry, species assumed): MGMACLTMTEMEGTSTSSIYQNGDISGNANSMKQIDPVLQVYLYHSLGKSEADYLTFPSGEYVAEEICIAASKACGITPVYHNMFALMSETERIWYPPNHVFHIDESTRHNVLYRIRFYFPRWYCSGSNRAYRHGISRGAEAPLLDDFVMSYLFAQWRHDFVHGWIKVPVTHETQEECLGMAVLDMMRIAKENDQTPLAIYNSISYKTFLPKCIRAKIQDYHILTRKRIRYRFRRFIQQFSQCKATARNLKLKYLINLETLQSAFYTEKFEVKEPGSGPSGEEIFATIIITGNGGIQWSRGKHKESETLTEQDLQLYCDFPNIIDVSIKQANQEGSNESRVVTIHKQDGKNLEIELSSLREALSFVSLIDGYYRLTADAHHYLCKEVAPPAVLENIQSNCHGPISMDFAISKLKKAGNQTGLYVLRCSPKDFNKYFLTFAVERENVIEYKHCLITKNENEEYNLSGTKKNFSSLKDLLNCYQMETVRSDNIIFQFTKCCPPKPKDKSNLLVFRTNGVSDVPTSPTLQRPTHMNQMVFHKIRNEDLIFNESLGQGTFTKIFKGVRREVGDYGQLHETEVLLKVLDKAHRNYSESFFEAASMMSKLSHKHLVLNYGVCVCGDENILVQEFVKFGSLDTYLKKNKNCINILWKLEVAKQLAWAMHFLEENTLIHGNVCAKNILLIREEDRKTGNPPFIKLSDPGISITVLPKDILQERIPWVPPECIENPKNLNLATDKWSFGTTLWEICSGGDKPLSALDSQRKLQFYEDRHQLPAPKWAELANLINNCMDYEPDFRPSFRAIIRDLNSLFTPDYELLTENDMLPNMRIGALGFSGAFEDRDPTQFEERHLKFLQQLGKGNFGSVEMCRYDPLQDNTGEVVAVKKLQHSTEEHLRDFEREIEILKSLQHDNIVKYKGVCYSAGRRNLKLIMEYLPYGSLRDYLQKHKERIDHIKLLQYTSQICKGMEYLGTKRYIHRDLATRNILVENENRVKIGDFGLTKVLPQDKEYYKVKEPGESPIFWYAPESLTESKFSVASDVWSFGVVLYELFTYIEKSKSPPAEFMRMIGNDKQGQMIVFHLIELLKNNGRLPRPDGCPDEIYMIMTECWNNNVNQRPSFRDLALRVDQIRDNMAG
JAK1, sequence (P23458 whole entry, species assumed): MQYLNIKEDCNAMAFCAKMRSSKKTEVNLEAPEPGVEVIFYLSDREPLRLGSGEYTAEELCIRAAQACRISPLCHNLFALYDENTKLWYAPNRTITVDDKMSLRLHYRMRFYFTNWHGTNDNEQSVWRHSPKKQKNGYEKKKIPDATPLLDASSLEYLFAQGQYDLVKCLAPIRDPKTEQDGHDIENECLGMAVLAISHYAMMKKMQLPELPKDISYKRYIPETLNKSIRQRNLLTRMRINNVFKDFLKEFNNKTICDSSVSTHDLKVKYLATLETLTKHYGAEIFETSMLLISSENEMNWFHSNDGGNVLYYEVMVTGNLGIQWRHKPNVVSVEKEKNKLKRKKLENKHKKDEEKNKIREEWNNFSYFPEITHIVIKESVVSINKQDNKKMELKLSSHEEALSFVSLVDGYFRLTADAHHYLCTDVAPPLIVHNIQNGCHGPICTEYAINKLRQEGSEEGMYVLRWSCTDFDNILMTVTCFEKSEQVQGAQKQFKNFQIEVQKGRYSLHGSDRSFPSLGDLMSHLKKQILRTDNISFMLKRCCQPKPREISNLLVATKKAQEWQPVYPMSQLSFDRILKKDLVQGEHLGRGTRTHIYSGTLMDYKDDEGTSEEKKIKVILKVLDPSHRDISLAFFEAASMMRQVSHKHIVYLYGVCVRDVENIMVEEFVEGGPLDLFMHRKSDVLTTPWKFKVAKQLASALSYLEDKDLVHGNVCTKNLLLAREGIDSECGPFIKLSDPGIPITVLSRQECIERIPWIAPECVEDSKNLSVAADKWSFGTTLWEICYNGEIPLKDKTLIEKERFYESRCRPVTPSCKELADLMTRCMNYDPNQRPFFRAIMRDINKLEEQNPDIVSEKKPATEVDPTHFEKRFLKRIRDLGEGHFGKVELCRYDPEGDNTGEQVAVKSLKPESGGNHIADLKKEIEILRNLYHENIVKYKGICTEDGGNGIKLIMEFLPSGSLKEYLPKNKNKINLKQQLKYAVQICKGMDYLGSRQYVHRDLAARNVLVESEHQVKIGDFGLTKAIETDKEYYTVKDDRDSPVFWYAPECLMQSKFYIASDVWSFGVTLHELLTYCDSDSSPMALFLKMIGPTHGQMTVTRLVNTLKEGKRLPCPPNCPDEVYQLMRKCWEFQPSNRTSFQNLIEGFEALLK

Broadly, the IC50 is the concentration that inhibits the measured activity by half. `CCS(=O)(=O)N1CC(CC#N)(n2cc(-c3nc(NC(=O)C4CC4)nc4ccsc34)cn2)C1` [Compound T-29, N-(4-(1-(3-(Cyanomethyl)-1-(ethylsulfonyl)azetidin-3-yl)-1H-pyrazol-4-yl)thieno[3,2-d]pyrimidin-2-yl)cyclopropanecarboxamide]: the IC50 against JAK1 is 0.05 to 0.5 µM; against JAK2 it was under 0.05 µM; at JAK3, over 1 µM.
Taken in the same sequence, the figures for `CCS(=O)(=O)N1CC(CC#N)(n2cc(-c3nc(Nc4ccccc4)nc4ccoc34)cn2)C1` [Compound T-30, 2-(1-(Ethylsulfonyl)-3-(4-(2-(phenylamino)furo[3,2-d]pyrimidin-4-yl)-1H-pyrazol-1-yl)azetidin-3-yl)acetonitrile] were 0.05 to 0.5 µM, under 0.05 µM and 0.05 to 0.5 µM.
The like results for `CCS(=O)(=O)N1CC(CC#N)(n2cc(-c3nc(Nc4cn[nH]c4)nc4ccsc34)cn2)C1` [Compound T-31, 2-(3-(4-(2-((1H-Pyrazol-4-yl)amino)thieno[3,2-d]pyrimidin-4-yl)-1H-pyrazol-1-yl)-1-(ethylsulfonyl)azetidin-3-yl)acetonitrile] were, in that order, under 0.05 µM, under 0.05 µM and 0.05 to 0.5 µM.
Taken in the same sequence, the figures for `CCS(=O)(=O)N1CC(CC#N)(n2cc(-c3nc(Nc4cnn(C(=O)COC)c4)nc4ccsc34)cn2)C1` [Compound T-32, 2-(1-(Ethylsulfonyl)-3-(4-(2-((1-(2-methoxyacetyl)-1H-pyrazol-4-yl)amino)thieno[3,2-d]pyrimidin-4-yl)-1H-pyrazol-1-yl)azetidin-3-yl)acetonitrile] were under 0.05 µM, under 0.05 µM and under 0.05 µM.
Take `CCS(=O)(=O)N1CC(CC#N)(n2cc(-c3nc(Nc4cnn(CC(=O)O)c4)nc4ccsc34)cn2)C1` [Compound T-33, 2-(4-((4-(1-(3-(Cyanomethyl)-1-(ethylsulfonyl)azetidin-3-yl)-1H-pyrazol-4-yl)thieno[3,2-d]pyrimidin-2-yl)amino)-1H-pyrazol-1-yl)acetic acid]: the IC50 is under 0.05 µM on JAK1, under 0.05 µM against JAK2 and 0.05 to 0.5 µM on JAK3.
With `CCCCOC(=O)CCn1cc(Nc2nc(-c3cnn(C4(CC#N)CN(S(=O)(=O)CC)C4)c3)c3sccc3n2)cn1` [Compound T-34, Butyl 3-(4-((4-(1-(3-(cyanomethyl)-1-(ethylsulfonyl)azetidin-3-yl)-1H-pyrazol-4-yl)thieno[3,2-d]pyrimidin-2-yl)amino)-1H-pyrazol-1-yl)propanoate], the IC50 at JAK1 is 0.05 to 0.5 µM; at JAK2 it was under 0.05 µM; on JAK3 it was 0.05 to 0.5 µM.
For `CCS(=O)(=O)N1CC(CC#N)(n2cc(-c3nc(Nc4cnn(CCC(=O)O)c4)nc4ccsc34)cn2)C1` [Compound T-35, 3-(4-((4-(1-(3-(Cyanomethyl)-1-(ethylsulfonyl)azetidin-3-yl)-1H-pyrazol-4-yl)thieno[3,2-d]pyrimidin-2-yl)amino)-1H-pyrazol-1-yl)propanoic acid], the IC50 against JAK1 was under 0.05 µM; at JAK2, under 0.05 µM; on JAK3 it was 0.05 to 0.5 µM.
`CCS(=O)(=O)N1CC(CC#N)(n2cc(-c3nc(Nc4cnn(CCC(=O)N(C)C)c4)nc4ccsc34)cn2)C1` [Compound T-36, 3-(4-((4-(1-(3-(Cyanomethyl)-1-(ethylsulfonyl)azetidin-3-yl)-1H-pyrazol-4-yl)thieno[3,2-d]pyrimidin-2-yl)amino)-1H-pyrazol-1-yl)-N,N-dimethylpropanamide]: the values for the IC50 against JAK1, at JAK2 and at JAK3 were 0.05 to 0.5 µM, under 0.05 µM and under 0.05 µM, respectively.
For the molecule `CCS(=O)(=O)N1CC(CC#N)(n2cc(-c3nc(Nc4cnn(CCCC(=O)N(C)C)c4)nc4ccsc34)cn2)C1` [Compound T-37, 4-(4-((4-(1-(3-(Cyanomethyl)-1-(ethylsulfonyl)azetidin-3-yl)-1H-pyrazol-4-yl)thieno[3,2-d]pyrimidin-2-yl)amino)-1H-pyrazol-1-yl)-N,N-dimethylbutanamide], the IC50 against JAK1, on JAK2 and at JAK3 was under 0.05 µM each time.
`CCS(=O)(=O)N1CC(CC#N)(n2cc(-c3nc(Nc4cnn(C5CCOCC5)c4)nc4ccsc34)cn2)C1` [Compound T-38, 2-(1-(Ethylsulfonyl)-3-(4-(2-((1-(tetrahydro-2H-pyran-4-yl)-1H-pyrazol-4-yl)amino)thieno[3,2-d]pyrimidin-4-yl)-1H-pyrazol-1-yl)azetidin-3-yl)acetonitrile]: the IC50 at JAK1, against JAK2 and on JAK3 was under 0.05 µM each time.
On to `CCS(=O)(=O)N1CC(CC#N)(n2cc(-c3nc(Nc4cnn(C5COC5)c4)nc4ccsc34)cn2)C1` [Compound T-39, 2-(1-(Ethylsulfonyl)-3-(4-(2-((1-(oxetan-3-yl)-1H-pyrazol-4-yl)amino)thieno[3,2-d]pyrimidin-4-yl)-1H-pyrazol-1-yl)azetidin-3-yl)acetonitrile], for which the figures for the IC50 at JAK1, against JAK2 and at JAK3 were 0.05 to 0.5 µM, under 0.05 µM and under 0.05 µM, respectively.
Take `CCn1cc(Nc2nc(-c3cnn(C4(CC#N)CN(S(=O)(=O)CC)C4)c3)c3sccc3n2)cn1` [Compound T-40, 2-(3-(4-(2-((1-Ethyl-1H-pyrazol-4-yl)amino)thieno[3,2-d]pyrimidin-4-yl)-1H-pyrazol-1-yl)-1-(ethylsulfonyl)azetidin-3-yl)acetonitrile]: the IC50 against JAK1, against JAK2 and on JAK3 was under 0.05 µM throughout.
Turning to `CCS(=O)(=O)N1CC(CC#N)(n2cc(-c3nc(Nc4cnn(C(C)C)c4)nc4ccsc34)cn2)C1` [Compound T-41, 2-(1-(Ethylsulfonyl)-3-(4-(2-((1-isopropyl-1H-pyrazol-4-yl)amino)thieno[3,2-d]pyrimidin-4-yl)-1H-pyrazol-1-yl)azetidin-3-yl)acetonitrile], the IC50 against JAK1, at JAK2 and at JAK3 was under 0.05 µM in each case.
For the molecule `Cn1cc(Nc2nc(-c3cnn(C4(CC#N)COC4)c3)c3ccsc3n2)cn1` [Compound T-42, 2-(3-(4-(2-((1-Methyl-1H-pyrazol-4-yl)amino)thieno[2,3-d]pyrimidin-4-yl)-1H-pyrazol-1-yl)oxetan-3-yl)acetonitrile], the IC50 is 0.5 to 1 µM at JAK1, 0.05 to 0.5 µM on JAK2 and over 1 µM at JAK3.
The like results for `Cn1cc(Nc2nc(-c3cnn(C4(CC#N)COC4)c3)c3sccc3n2)cn1` [Compound T-43, 2-(3-(4-(2-((1-Methyl-1H-pyrazol-4-yl)amino)thieno[3,2-d]pyrimidin-4-yl)-1H-pyrazol-1-yl)oxetan-3-yl)acetonitrile] were, in that order, 0.05 to 0.5 µM, under 0.05 µM and 0.05 to 0.5 µM.
The like results for `Cn1cc(Nc2nc(-c3cnn(C4(CC#N)CCOCC4)c3)c3sccc3n2)cn1` [Compound T-44, 2-(4-(4-(2-((1-Methyl-1H-pyrazol-4-yl)amino)thieno[3,2-d]pyrimidin-4-yl)-1H-pyrazol-1-yl)tetrahydro-2H-pyran-4-yl)acetonitrile] were, in that order, 0.05 to 0.5 µM, under 0.05 µM and 0.05 to 0.5 µM.
